Reference: PMC9249808, “A novel lipidic peptide with potential to promote balanced effector-regulatory T cell responses” (Scientific Reports, 2022)

Test system: Lck-WT protein
Assay: Lck binding assay (non-cell-based ELISA)
Details: peptide coated 10 µg/mL in PBS, 4 °C 20 h; Lck-WT (mCherry, c-myc tag) 2 h room temperature, HRP anti myc, 450 nm; duplicate experiments, 3 technical replicates; negative control PBS; Fig. 6b
Experimental: Lck wild-type (Lck-WT) was prepared in CHO cells. The plasmid for the expression of Lck-WT protein was kindly provided by the research laboratory of Professor Katarina Gaus. The plasmid was encoded for mammalian cell expression of the Lck-WT protein with a C-terminal mCherry reporter. A twin-strep tag was incorporated at the N-terminal of the Lck-WT for purification, and a c-myc epitope tag was placed at the C-terminal, after mCherry for detection of protein expression. A midiprep DNA preparation of the plasmid was performed using the Macherey–Nagel Midi kit as per manufacturer’s instructions. For transient transfections plasmid DNA was transfected into CHO-S cells using 2 μg DNA mL^−1 cells at a concentration of 3 million cells mL^−1. DNA was complexed with polyethylenimine-Pro (PolyPlus) in Opti-Pro serum free medium (Life Technologies) at a DNA (μg) to PEI (μL) ratio of 1:4 (w:v) for 15 min prior to transfecting suspension adapted CHO cells. […]
The peptides, IK14004 and IK14000, were reconstituted into PBS at 1 mg/mL. […] 100 µL of 2 M sulphuric acid was added to stop the reaction and the absorbance values recorded at a wavelength of 450 nm using SpectraMax (Molecular Devices).

RSKAKNPLYR [IK14000]
binding to Lck: no different to the negative control
